System: tumor-bearing mice
Assay: In vivo anti-tumor therapeutic effect in tumor-bearing mice
Conditions: day 25 compared to day 0 post-injection; intravenous, every 72 hours, 5 injections
Protocol: In vivo mice experiments were conducted to evaluate the anti-tumor therapeutic effects of PTX-loaded high (55K/SH-PTX; 39.6% drug loading) and low-drug loading formulations (55K/SH-PTX; 3.5% drug loading) in tumor-bearing mice. Four formulations (PBS, Free PTX, High DL NP, and Low DL NP_where DL is drug loading and NP is core-shell polymer nanoparticle) were injected intravenously every 72 hours for 5 injections in total. The body weight and tumor volume of the mice were monitored every two days. […] The weight increase was higher than the Low DL NP group (4.4% increase) and Free PTX group (2.9% increase).

Question: For `CC(=O)O[C@H]1C(=O)[C@@]2(C)[C@H]([C@H](OC(=O)c3ccccc3)[C@]3(O)C[C@H](OC(=O)[C@H](O)[C@@H](NC(=O)c4ccccc4)c4ccccc4)C(C)=C1C3(C)C)[C@]1(OC(C)=O)CO[C@@H]1C[C@@H]2O` [Free PTX, paclitaxel], which body weight increase is on record?
Answer: 2.9%

— patent US11766409B2, “Core-shell polymer nanoparticle” (THE UNIVERSITY OF QUEENSLAND, priority 2018, dated 2023)
